Laboratory results as given in PubChem BioAssay AID179 (DTP/NCI, 2004).
“And” between values parts separate entries of the source, which are not always exact repeats. Identical values can stand only once. The source made the active and inactive calls.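 The calls were made as follows: active = compounds giving half or more protection of infected cells from virus-caused growth loss, again on retest; inactive = the rest.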

Tested on: CEM cells HIV-1 protection, formazan growth assay
Experiment: NCI AIDS Antiviral Assay
Conditions: for IC50: measured here: growth of uninfected CEM cells
Method in brief: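 Protection of CEM cells against HIV-1 was scored from cell growth (soluble formazan) across five concentrations, with parallel uninfected cells. Lack of protection may reflect toxicity.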

Structure (SMILES) | EC50 [µM] | IC50 | outcome
c1cc(C2O[C@H]3CCCN3[C@@H]2c2ccncc2)ccn1 (stereo partly specified) | > 933 | 331 µM | 
N#Cc1c(N)nc([Se]CC(=O)c2ccc(Cl)cc2)c(C#N)c1-c1ccco1 | > 200 | 141 µM | 
COc1cc(C(=O)O[C@H]2CCC3CCC2N3C)cc(OC)c1OC (stereo partly specified) | > 200 | > 200 µM | 
CC(=O)CC(O)(C(F)(F)Cl)C(F)(F)Cl |  |  | inactive
c1ccc2cc(CNCCCCNCCCNCc3ccc4ccccc4c3)ccc2c1 | > 200 | 0.257 µM | 
COc1ccc2cc1Oc1ccc(cc1)CC1c3cc4c(cc3CCN1C)Oc1c(OC)cc3c(c1O4)C(C2)N(C)CC3 (stereo unspecified) |  |  | inactive
Cc1ccc2c(c1)CC1(C2=O)[C@H](c2ccccc2)C2C(=O)c3ccc(C)cc3C2[C@H]1c1ccccc1 (stereo partly specified) | > 200 |  | 
CC(C)(SSC(C)(C)C1NC(=O)NC1=O)C1NC(=O)NC1=O (stereo unspecified) | > 200 | 120 µM | 
CCCCCNC(=O)Sc1ccccc1C(=O)N[C@H](C)C(N)=O | 1 | 123 µM | 
CN(C)/N=C(\CCN1CCCC1)CC(c1ccccc1)c1c(O)c2ccccc2oc1=O (stereo unspecified) | > 39.8 | > 39.8 µM | 
CC(=O)OCC1OC(Nc2ccc3nc(C)n(-c4cccc(C)c4)c(=O)c3c2)C(OC(C)=O)C(OC(C)=O)C1OC(C)=O (stereo unspecified) | > 126 | > 126 µM | 
Cc1cc(S(=O)(=O)Nc2nc(N)nc(N(C)C)n2)c(S)cc1Cl | > 182 | 166 µM | 
COc1cc2c(cc1OC)C1CCc3ccccc3CN1CC2 (stereo unspecified) | > 200 | 170 µM | 
O=C(O)C1Cc2nc[nH]c2CN1 (stereo unspecified) |  |  | inactive
COc1ccc(/C=C2/N=C(N/N=C\C(O)C(O)C(O)C(O)CO)NC2=O)cc1 (stereo unspecified) |  | 77.6 µM and 112 µM | 
Nc1c(S)cc(O)c2c1C(=O)c1ccccc1C2=O | > 100 | > 100 µM | 
CSc1n[nH]c2c1c(C)nn2-c1ccccc1 | > 200 | 95.5 µM | 
O=C1C2C(C(=O)N1OS(=O)(=O)c1ccccc1)N(Cc1ccccc1)C(=O)N2Cc1ccccc1 (stereo unspecified) | > 7.59 | > 7.59 µM | 
CNC(=O)c1n[nH]nc1Sc1c([N+](=O)[O-])ncn1C |  |  | inactive
O=c1c2ccccc2[nH]c2c(Cl)cc(Cl)c(N3CCCCC3)c12 | > 200 | 12.9 µM | 
COC(=O)C(=O)C(C(=O)C1=NS(=O)(=O)c2cc(S(N)(=O)=O)c(Cl)cc2N1)c1nc2ccc(C(=O)c3ccccc3)cc2[nH]c1=O (stereo unspecified) | > 195 | 49 µM | 
COc1ccc2c(c1)CC[C@@H]1C2CC[C@]2(C)C(=C=CP(=O)(O)O)CCC12 (stereo partly specified) | > 200 | > 200 µM | 

Structure (SMILES) | EC50 [µM] | IC50 | outcome
CC(=O)Oc1c(Cl)cc(C(=CCC[C@H]2CC[C@@]3(C)[C@@H](CC[C@@H]4[C@@H]3CC[C@]3(C)[C@@H]([C@H](C)CCCC(C)C)CC[C@@H]43)C2)c2cc(Cl)c(OC(C)=O)c(C(=O)O)c2)cc1C(=O)O | 162 | 174 µM | 
COc1cc(/C=C2\C(=O)N(C(=O)Cc3ccccc3)N=C2C)ccc1O | > 53.7 | > 53.7 µM | 
CCC1(c2ccc(OC)c(OC)c2)CCN(S(=O)(=O)c2ccc(C)cc2)C1 (stereo unspecified) | > 200 | > 200 µM | 
Cn1c2ccccc2c2ccc3c(c21)C(=O)C=CC3=O | > 100 | 1.35 µM | 
CCOC(=O)/C(=C\c1ccc(N(C)C)cc1)P(=O)(OCC)OCC | > 513 | 55 µM | 
Cc1cn(Cc2ccccc2CCO)c(=O)[nH]c1=O | 191 | 479 µM | 
COc1ccc(OC)c2c3c(ccc12)C(c1ccccc1)OC3=O (stereo unspecified) |  |  | inactive
Cc1nnc(NS(=O)(=O)c2ccc(NC(=O)c3ccccc3SC(=O)CCCC[n+]3ccccc3)cc2)s1 | 51.3 | 55 µM | 
CC(=O)Oc1ccc(/C=C/C(=O)O[C@@H](C(=O)O)[C@@H](OC(=O)/C=C/c2ccc(OC(C)=O)c(OC(C)=O)c2)C(=O)O)cc1OC(C)=O | > 30.2 | > 30.2 µM | 
CC(C)N1C(=O)N(Cl)C2C1N(Cl)C(=O)N2Cl (stereo unspecified) | > 200 | > 200 µM | 
COc1ccc(C(=O)C#Cc2cnc(OC)nc2OC)cc1 | > 2 | 0.363 µM | 
c1ccc(-c2cc(Nc3ccc4c(c3)OCO4)c3cc(C4CCCCC4)ccc3n2)cc1 |  |  | inactive
COC(=O)Nc1nc2ccc(C(=O)C3CC3)cc2[nH]1 | > 200 | 0.219 µM | 
CCN(CC)c1ccc(N=C2C=CC(=O)c3ncccc32)c(C)c1 | > 11.7 | > 11.7 µM | 
CC/C(CC(=O)CCC(=O)Nc1ccc(C)c(C)c1)=N\NC(=O)C(N)=O |  |  | inactive
CN(C)CCCc1cccc2[nH]c3c(c12)CN(C)CC3 | > 200 | 126 µM | 
CC/C(CC(=O)CCC(=O)Nc1c(C)cccc1C)=N\NC(=O)NN | > 145 | > 145 µM | 
Cc1cc([N+](=O)[O-])c(C)c2c1[nH]c1ccc(/C(CCC3CCCC3)=N\N)cc12 | > 10 | > 10 µM | 
O=[N+]([O-])c1cccc2nc3ccccc3c(NCCC[N+]3([O-])CCOCC3)c12 | > 2 | 0.105 µM | 
O=[As]O |  |  | inactive
Cc1ccc2nc(C(=O)O)c(=O)[nH]c2c1 |  |  | inactive
CC1(C)COC2C(N(Cc3ccccc3)Cc3ccccc3)C(=O)N21 (stereo unspecified) |  |  | inactive
